Data as given in patent US20130184272A1, “DIABETES THERAPEUTIC AGENT” (TAKEDA PHARMACEUTICAL COMPANY LIMITED, priority 2010, published 2013).
Several values for one entry are separate records, joined by “and”; a condition that tells them apart may be missing. Identical values can stand only once.

Experiments:
[1] = test system: creatine kinase (CKM); experiment: Muscle-related gene expression in myoblast: creatine kinase (CKM); assay type: cell-based, Mouse; settings: for CKM/36B4 expression level: 10 μM, 1 day, relative value
[2] = test system: EGLN3; experiment: Muscle-related gene expression in myoblast: EGLN3; assay type: cell-based, Mouse; settings: for EGLN3/36B4 expression level: 10 μM, 1 day, relative value
Description: • (1) In the same manner as in Example 1, C2C12 cell was cultured, and the compound of Reference Example 1 (10 nM) was added. A DMSO solution was added to the control group instead of the test compound. • (2) One day after the addition of the test compound or DMSO solution, total RNA was extracted using Rneasy 96 kit (Qiagen) and according to the manual of the kit, and cDNA was prepared using TaqMan reverse transcription reagent (Applied Biosystems). • (3) The expression level of MyoD (Mm00440387_m1, TaqMan Gene Expression Assays, Applied Biosystems), myogenin (Mm00446194_m1, TaqMan Gene Expression Assays, Applied Biosystems), creatine kinase (CKM) (Mm00432556_m1, TaqMan Gene Expression Assays, Applied Biosystems), EGLN3 (Mm00472200_m1, TaqMan Gene Expression Assays, Applied Biosystems) was measured by quantify PCR using ABI PRISM 7900 (Applied Biosystems). The expression level of each gene, shown in Table 3, Table 4, Table 5 and Table 6, was obtained by amendment against the expression level of 36B4 (Takeda Pharmaceutical Company Limited), and is shown in a relative value to the value of the control group cultured in a growth medium as 1.
The data of Table 3, Table 4, Table 5 and Table 6 show mean±standard deviation at n=6 (n is the number of samples).
The following depicts the sequences of genes used for the amendment. • 36B4-F: 5′-TGCCACACTCCATCATCAATG-3′ (SEQ ID NO: 1) • 36B4-R: 5′-CGCAAATGCAGATGGATCAG-3′ (SEQ ID NO: 2) • 5′-VIC-ACCTTCCCACTTACTGAAAAGGTCAAGGCC-TAMRA-3′ (SEQ ID NO: 3)

[3] = test system: C2C12 cells; experiment: Action on muscle cell differentiation suppressed by TNF-α (creatine kinase activity); assay type: cell-based, Mouse; settings: for creatine kinase activity (mIU/μg): TNF-a 30 ng/mL, 3 days
Description: • (1) In the same manner as in Example 1, C2C12 cells were cultured in a growth medium to not less than 90% confluence. • (2) The medium was exchanged with a differentiation medium, the compound of Reference Example 1 together with TNF-α were added, and the cells were cultured for 3 days. • (3) The cells were washed with PBS, 0.5% NP-40 solution was added, and the cells were lysed by freeze-thawing. The cell extract was centrifuged and the creatine kinase activity in the supernatant was measured as an index of muscle differentiation. The creatine kinase activity was measured using CPKII Test Wako (Wako Pure Chemical Industries, Ltd.) according to the manual of the kit.
The data in Table 9 show mean±standard deviation at n=3 (n is the number of samples).

[4] = test system: C/EBPα; experiment: Adipocyte-related gene expression level: C/EBPα; assay type: cell-based
Description: (§1) In the same manner as in Example 10, the cells were cultured, and total RNA was extracted using Rneasy96 kit (Qiagen) from the cell immediately before and 6 days after addition of […] of the compound of Reference Example 1. cDNA was prepared from the total RNA using TaqMan reverse transcription reagent (Applied Biosystems), quantitative PCR was performed by ABI PRISM7000 or 7000 using TaqMan Universal PCR master mix (Applied Biosystems) and commercially available primers, and the expression level of each gene was determined. The commercially available primers used were as follows. • C/EBPα (Mm00514283_s1, TaqMan Gene Expression Assays, Applied Biosystems) • C/EBPβ (Mm00843434_s1, TaqMan Gene Expression Assays, Applied Biosystems) • KLF15 (Mm00517792_m1, TaqMan Gene Expression Assays, Applied Biosystems) • PPARγ (Mm00440945_m1, TaqMan Gene Expression Assays, Applied Biosystems)
(§2) The expression level was amended by the amount of 36B4 (Takeda Pharmaceutical Company Limited) in the same manner as in Example 3, and the relative values to the value immediately before addition of each gene compound as 1 are shown in Table 16. The data in Table 16 show mean±standard deviation at n=3-4 (n is the number of samples).

[5] = test system: C/EBPβ; experiment: Adipocyte-related gene expression level: C/EBPβ; assay type: cell-based
Description: as §1, §2

[6] = test system: KLF15; experiment: Adipocyte-related gene expression level: KLF15; assay type: cell-based
Description: as §1, §2

[7] = test system: PPARγ; experiment: Adipocyte-related gene expression level: PPARγ; assay type: cell-based
Description: as §1, §2

[8] = test system: Normal male C57BL/6J mice; experiment: Data of normal mouse; assay type: in vivo
Description: Normal male C57BL/6J mice (CLEA Japan, Inc.) were bred allowing free ingestion of both feed and water. The mice were bred for acclimation for 1 week from 16-week-old. The body weight was measured, the mice were divided into 2 groups (5 per group) to be uniform, and the compound of Reference Example 1 (0.03 mg/kg) was orally administered to one group for 2 weeks. On the last day, the body weight, and plasma levels of total cholesterol, glucose, lactic acid, GOT, GPT and neutral lipid were measured. The data of Table 19 show mean±standard deviation at n=5 (n is the number of samples).

[9] = C2C12 cells cultured in a differentiation medium
[10] = 10 μm [sic] of compound, 6 days after addition, value immediately before addition = 1
[11] = normal mice, 0.03 mg/kg oral, 2 weeks

SMILES: Cc1ncccc1Oc1sc(C(N)=O)c2c1-c1c(cnn1C)CC2 [Ref. Ex. 1, 1-methyl-8-[(2-methylpyridin-3-yl)oxy]-4,5-dihydro-1H-thieno[3,4-g]indazole-6-carboxamide]
- expression of creatine kinase (in words) [1, 9]: promoted
- CKM/36B4 expression level ([1]; DM (differentiation medium)): 4.84 ± 1.08
- CKM/36B4 expression level ([1]; GM (growth medium)): 0.03 ± 0.01
- expression of EGLN3 (in words) [2, 9]: increased
- EGLN3/36B4 expression level ([2]; DM (differentiation medium)): 2.07 ± 1.15
- EGLN3/36B4 expression level ([2]; GM (growth medium)): 2.12 ± 0.15
- creatine kinase activity decreased by TNF-α (in words) [3]: recovered
- creatine kinase activity (mIU/μg) ([3]; compound 0 nM as printed): 0.12 mIU/μg and 0.15 mIU/μg
- creatine kinase activity (mIU/μg) ([3]; compound 1 nM): 0.25 mIU/μg
- creatine kinase activity (mIU/μg) ([3]; compound 3 nM): 0.39 mIU/μg
- C/EBPα expression level (amended by 36B4) [4, 10]: 1.6 ± 0.5
- expression level of C/EBPα (in words) ([4]; C3H10T1/2 cell): decreased
- C/EBPβ expression level (amended by 36B4) [5, 10]: 1.3 ± 0.5
- expression level of C/EBPβ (in words) ([5]; C3H10T1/2 cell): decreased
- KLF15 expression level (amended by 36B4) [6, 10]: 1.4 ± 0.4
- expression level of KLF15 (in words) ([6]; C3H10T1/2 cell): decreased
- PPARγ expression level (amended by 36B4) [7, 10]: 4.5 ± 0.9
- expression level of PPARγ (in words) ([7]; C3H10T1/2 cell): decreased
- normal body weight and plasma markers (in words) ([8]; normal C57BL/6J mice): does not affect
- body weight (g) on last day [8, 11]: 28.03 ± 0.84 g
- plasma GOT (U/L) [8, 11]: 63.4 ± 31.1 U/L
- plasma GPT (U/L) [8, 11]: 29.4 ± 3.9 U/L
- plasma glucose [8, 11]: 155.5 ± 11.9 mg/dL
- plasma lactic acid [8, 11]: 49.3 ± 16.5 mg/dL
- plasma neutral fats [8, 11]: 78.0 ± 31.0 mg/dL
- plasma total cholesterol [8, 11]: 81.1 ± 10.2 mg/dL
- total amount of ingestion (g/2 weeks) [8, 11]: 55.6 ± 2.5 g/2 weeks
